Marks after values point to notes of the source that are not given here.
What was measured:
[1] = MGO capture using derivatization with OPD (HPLC); details: PESE 2 mg/mL, PIC 2 mM, AMG 2 mM; MGO 2 mM; 37 °C, 1 h
Method: MGO scavenging was tested using a described procedure, with slight modifications. The quantification of MGO was based on derivatization with OPD, leading to the formation of the product 2-methylquinoxyline (2-MQ). MGO and OPD were dissolved in phosphate buffer (50 mM, pH 7.4) to a concentration of 2 mM and 4 mM, respectively. […] The reaction system was composed of 125 μL of the MGO solution, 125 μL of phosphate buffer (negative control), or PESE incubated at 37 °C for 1 h. After 250 μL of the OPD solution was added, the tubes were kept for 30 min for the derivatization reaction between MGO and OPD to complete. Then, the chromatographic analysis was performed. All solutions were previously filtered (microfilter pore diameter 0.45 μm). […] The linear gradient for elution was: starting at 5% of solvent B, 0–3 min, 5 to 50% B; 3–16 min, isocratic in 50% B; 16–17 min, 50–90% B; 17–19 min, isocratic in 90% B and 19–19.5 min, 90–5% B. The derivatization product, 2-methylquinoxyline (2-MQ), was detected at 315 nm, with a retention time of 10 min. The percentage of trapping efficiency of MGO was calculated using the following equation: % trapping MGO = [100 − (peak area after adding sample/peak area without adding sample) × 100].

BSA/MGO fluorescent AGEs = assay: Inhibition of AGE formation, intermediate stage of glycation (BSA/MGO); format: biochemical, bovine; details: BSA/MGO model
Method: (§1) The BSA-MGO assay was based on those described before, with some modifications. This experiment is based on the formation of fluorescent AGEs from the middle stage of protein glycation. MGO (1.5 mM) and BSA (3 mg/mL) were dissolved separately in 0.05 M phosphate buffer (pH 7.4) containing NaCl (100 mM) and NaN3 (0.02% w/v). Then, 300 μL of MGO was incubated with samples at different concentrations (dissolved in a buffer containing 60% ethanol) for an hour at 37 °C, in the dark, with constant stirring. After BSA (3 mg/mL) was added to the reaction mixture and incubation time was extended to 48 h at 37 °C in darkness. The rest of the procedure was the same as that for the BSA-glucose/fructose model that is described above. The percentage of the AGE inhibition and IC50 was calculated as described in Section 3.3.1.

[2] = test system: BSA/fructose + glucose fluorescent AGEs; assay: Inhibition of AGE formation, initial stage of glycation (BSA/fructose + glucose); format: biochemical, bovine; details: BSA/fructose + glucose model, 7 days, 37 °C
Method: The formation of AGEs was measured after incubation of a system containing protein and carbohydrates. This assay was based on previous methods. The reaction system was obtained by adding 300 µL of plant extract or of the pure compound (at different concentrations), 150 µL D-fructose (200 mM), 150 µL of D-glucose (200 mM), and 300 µL of bovine serum albumin (BSA, 3 mg/mL) to a test tube. All these solutions, except plant extract, were dissolved in 0.05 M potassium phosphate buffer (pH 7.4) containing NaCl (100 mM) and NaN3 (0.02% w/v). The plant extract was prepared in a buffer containing 60% ethanol. The mixture was incubated in the dark at 37 °C for 7 days with constant stirring. After the incubation, 200 µL of the reaction mixture was transferred to a 96-well black plate, and fluorescent AGEs were measured using a microplate reader (Infinite® 200 PRO, TECAN, Männedorf, Switzerland) at λex = 360 and λem = 440 nm. […]. Aminoguanidine (AMG), a known AGE formation inhibitor, was used as a standard. The reaction mixture without inhibitors was used as a positive control. Color interference from the sample was eliminated by a sample control (buffer and sample). The fluorescence readings for the experimental treatment were blanked against extract blanks to eliminate the baseline fluorescence of the sample. The percentage of the AGE inhibition and IC50 was calculated as described in Section 3.3.1.

[3] = test system: amyloid fibrils of glycated BSA (BSA/MGO); assay: Inhibition of amyloid fibril formation, ThT assay (BSA/MGO); format: biochemical, bovine; details: highest obtained, PESE 200, PIC 200, AMG 100 µg/mL
Method: as §1
The fibrillar state of modified BSA was determined with ThT as previously described. ThT is a probe that binds directly to amyloid fibrils to give a strong fluorescent signal and thus can be used to quantify β-amyloid due to protein glycation. Basically, 30 μL of glycated protein (approx. 1 mg/mL), obtained as described previously, was mixed with 100 μL ThT reagent (10 μM ThT in 100 mM phosphate buffer, pH 7.0), and fluorescence was collected at excitation/emission wavelengths of 450/490 nm in a microplate reader (Infinite® 200 PRO, TECAN, Männedorf, Switzerland). […]

[4] = DPPH radical scavenging assay
Method: After incubation in the dark for 30 min, the absorbance was read at 516 nm, using a UV–Vis spectrophotometer (Agilent Technologies, Santa Clara, CA, USA). Results were expressed as the half-maximal inhibitory concentration (IC50) in μg/mL.

[5] = Superoxide anion radical scavenging activity
Method: The potential of the samples to scavenger superoxide anion radicals was determined, with minor modifications. […] Phosphate buffer (19 mM, pH 7.4) was used to dissolve NADH, NBT, and PMS. QCT was used as means of comparison. The experiment was conducted at 37 °C in a microplate reader (Infinite® 200 PRO, TECAN, Männedorf, Switzerland), and the absorbance was measured at 560 nm. The results were expressed as IC50 of extract solution in μg/mL.

[6] = design: method as in PMID 31683151; details: compound 5 mM, MGO 5 mM; cited from earlier work

Method for HOCl scavenging activity: Briefly, a freshly prepared HOCl solution, by adjusting the pH of a 1% solution of NaOCl to 6.2 with dropwise addition of diluted H2SO4, was diluted to 30 µM, using 100 mM phosphate buffer pH 7.4. […] QCT was used as means of comparison. Fluorescence assays were performed in a microplate reader (Infinite® 200 PRO, TECAN, Männedorf, Switzerland), at 37 °C, at wavelengths of 505 ± 10 nm and 530 ± 10 nm, for excitation and emission, respectively. The results were expressed as IC50 (μg/mL) of extract solution.

With N=C(N)NN [AMG, Aminoguanidine] the MGO trapping [1] was 99.6%, the “Antiglycation IC50, MGO” value (BSA/MGO fluorescent AGEs) was 50.4 ± 1.8 ^c μg/mL and the “Antiglycation IC50, Fructose + Glucose” value [2] was 25.5 ± 5.0 ^c μg/mL. For the same compound, the “Inhibition of Amyloid Fibrils (%), MGO” value [3] was 30.3 ± 4.4 ^c %.
In the case of O=c1c(O)c(-c2ccc(O)c(O)c2)oc2cc(O)cc(O)c12 [QCT, quercetin], the “DPPH• IC50” value ([4]; 30 min) is reported as 4.8 ± 1.0 µg/mL, the IC50 ([4]; data in parenthesis are in μM) is reported as 15.9 µM and the “HOCl IC50” value (HOCl scavenging activity) is reported as 1.9 ± 0.3 µg/mL. For the same compound, the “O2•− IC50” value [5] was 8.8 ± 0.3 µg/mL, the IC50 ([5]; data in parenthesis are in μM, read-out: O2•− IC50 (in parenthesis) (converted)) was 29.2 µM and the MGO capture percentage [6] was 21.4%.
For O=c1cc(-c2ccc(O)cc2)oc2cc(O)cc(O)c12 [apigenin], the MGO capture percentage [6] is given as 36.5%.
In the case of COc1cc(-c2cc(=O)c3c(O)cc(O)cc3o2)ccc1O [chrysoeriol], the MGO capture percentage [6] is given as 41.8%.
In the case of O=c1c(-c2ccc(O)cc2)coc2cc(O)cc(O)c12 [genistein], the MGO capture percentage [6] is given as 43.4%.
For O=c1c(O)c(-c2ccc(O)cc2)oc2cc(O)cc(O)c12 [kaempferol], the MGO capture percentage [6] is given as 58.9%.
In the case of O=c1cc(-c2ccc(O)c(O)c2)oc2cc(O)cc(O)c12 [luteolin], the MGO capture percentage [6] is listed as 40.7%.
For CC1OC(OCC2OC(Oc3c(-c4ccc(O)cc4)oc4cc(OC5OC(C)C(O)C(O)C5O)cc(O)c4c3=O)C(O)C(O)C2O)C(O)C(O)C1O (stereo not drawn) [robinin], the MGO capture percentage [6] is listed as 54.4%.
In the case of C[C@@H]1O[C@@H](OC[C@H]2O[C@@H](Oc3c(-c4ccc(O)c(O)c4)oc4cc(O)cc(O)c4c3=O)[C@H](O)[C@@H](O)[C@@H]2O)[C@H](O)[C@H](O)[C@H]1O [rutin], the MGO capture percentage [6] is listed as 49.3%.
For procyanidins, the MGO capture percentage [6] is listed as 46.3%.

From article PMC9267955, “Antidiabetic, Antiglycation, and Antioxidant Activities of Ethanolic Seed Extract of Passiflora edulis and Piceatannol In Vitro” (Molecules, 2022)
